From patent publication US8772499B2, “TRPV3 modulators” (AbbVie Inc., priority 2011, dated 2014)
pIC50: −log10 of the molar value. Like-named read-outs stand apart in the source and are kept apart here.

Columns and labels:
human TRPV3 = biological target: T1, human TRPV3 (Homo sapiens, UniProt Q8NET8); test: In vitro antagonism of recombinant human TRPV3 activation (FLIPR Tetra calcium assay); assay type: cell-based; details: HEK293 cells stably expressing human TRPV3, agonist 2-APB at 80 μM
T1 construct: expressed in transfected cells
T1 sequence (Q8NET8 1-790): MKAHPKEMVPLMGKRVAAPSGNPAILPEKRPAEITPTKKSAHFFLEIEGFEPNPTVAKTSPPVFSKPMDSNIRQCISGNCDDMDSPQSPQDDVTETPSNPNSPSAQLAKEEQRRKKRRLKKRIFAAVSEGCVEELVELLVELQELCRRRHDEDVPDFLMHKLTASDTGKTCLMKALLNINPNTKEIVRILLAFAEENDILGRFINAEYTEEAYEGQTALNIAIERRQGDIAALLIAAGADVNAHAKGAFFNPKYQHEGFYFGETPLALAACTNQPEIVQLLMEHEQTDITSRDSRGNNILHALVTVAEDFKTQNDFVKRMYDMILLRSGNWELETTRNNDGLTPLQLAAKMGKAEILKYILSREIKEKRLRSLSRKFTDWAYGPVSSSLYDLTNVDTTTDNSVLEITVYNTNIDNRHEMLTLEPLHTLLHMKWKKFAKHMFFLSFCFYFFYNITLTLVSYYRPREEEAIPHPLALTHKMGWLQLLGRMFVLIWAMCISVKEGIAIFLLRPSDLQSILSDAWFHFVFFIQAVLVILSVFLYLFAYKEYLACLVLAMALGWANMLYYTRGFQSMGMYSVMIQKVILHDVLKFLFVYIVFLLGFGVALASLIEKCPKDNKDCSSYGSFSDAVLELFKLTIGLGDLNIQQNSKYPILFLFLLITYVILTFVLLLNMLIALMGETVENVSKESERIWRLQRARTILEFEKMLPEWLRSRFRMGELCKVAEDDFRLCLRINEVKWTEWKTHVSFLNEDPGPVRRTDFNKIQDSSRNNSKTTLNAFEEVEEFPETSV
Experimental: Test compounds were evaluated for ability to antagonize the activation of recombinant human TRPV3 using FLIPR® Tetra cellular screening. Specifically, on the day prior to the experiment recombinant HEK293 cells that stably express human TRPV3 were removed from tissue culture flasks and plated in growth medium at 20,000 cells/well into Poly-d-lysine coated black/clear 384-well Plate (Corning, 3845) using a Multidrop® dispenser (ThermoScientific, Waltham, Mass.). Prior to the start of the assay, the medium was removed by aspiration, and cells were loaded with 30 μL no-wash FLIPR® Calcium-4 dye (λEX=470-495 nm, λEM=515-575 nm; Molecular Devices, Sunnyvale, Calif.). The cells were then incubated for 90-120 minutes in the dark prior to addition of the test compound.
A double-addition protocol was used. The test compound (i.e., the TRPV3 antagonist) was added at the 10 second time point, followed by the addition of a TRPV3 agonist three minutes later. Each test compound evaluated was first dissolved in DMSO to prepare a 10 mM stock solution. A solution (5×) of the test compound was then prepared in DPBS (Dulbecco's Phosphate Buffered Saline) and 10 μl, of that solution was added to the cells at a delivery rate of 40 μL/sec. The TRPV3 agonist used to activate human TRPV3 expressed by the […] was 2-aminoethoxy-diphenyl borate (2-APB; Tocris Cookson, Ellisville, Mo.) at 80 μM. Final assay volume was 50 μl, Total length of an experimental run was 10 minutes.
Changes in fluorescence were measured over time using the FLIPR® instrument. The intensity of the fluorescence was captured and digitally transferred to an interfaced computer. The maximum response minus minimum response was calculated and expressed as the percentage of the maximum 2-APB response in the absence of antagonist. The concentration of 2-APB corresponds to its EC80.
Table 1 reports the IC50 values measured for the test compounds as human TRPV3 antagonists. […] Actual measured values are shown parenthetically after the reported range. In most cases, the values reported are average values from at least two runs (i.e., n≧2).

[1] = In vitro human microsomal stability assay; assay type: in vitro ADME; details: for HUMAN MICROSOMAL STABILITY (% REMAINING AFTER 30 MINUTES): microsomes, 0.5 h, 0.5 μM, pH 7.4
Experimental: (§1) Test compounds were evaluated for metabolic stability in an in vitro rat microsomal stability assay using rat liver microsomes (Sprague-Dawley, from BD Biosciences) and/or an in vitro human microsomal stability assay using human liver microsomes (Xenotech). […] Incubations were carried out at 37° C. with a final incubation volume of 135 μL. […] A 1.5 μL aliquot of reduced nicotine adenine disphosphonucleotide (NADPH) (Chem-Impex Int'L Inc., Lot 12532024) was also added to the time-zero plates.

[2] = In vitro rat microsomal stability assay; assay type: in vitro ADME, rat (Sprague-Dawley); details: for RAT MICROSOMAL STABILITY (% REMAINING AFTER 30 MINUTES): Sprague-Dawley, microsomes, 0.5 h, 0.5 μM, pH 7.4
Experimental: as §1

[3] = actual measured value shown parenthetically, in most cases average of at least two runs, read-out: IC50
[4] = reported range, read-out: IC50 (range class)

| pIC50 (human TRPV3; [3]) | HUMAN MICROSOMAL STABILITY (% REMAINING AFTER 30 MINUTES) [1] | RAT MICROSOMAL STABILITY (% REMAINING AFTER 30 MINUTES) [2] | SMILES | also measured |
| --- | --- | --- | --- | --- |
| 4.86 | 11% | 0.23% | CC(c1ccc(F)cc1)C1(C(O)c2ccccn2)CCC1 (stereo not drawn) [Example 46, {1-[1-(4-fluorophenyl)ethyl]cyclobutyl}(pyridin-2-yl)methanol] |  |
| 4.96 | 70% | 53% | O=C1CC(c2ccc(F)c(Cl)c2)(C(O)c2ccccn2)C1 (stereo not drawn) [Example 258, 3-(3-chloro-4-fluorophenyl)-3-[hydroxy(pyridin-2-yl)methyl]cyclobutanone] |  |
| 5.15 | 1.6% | 0.29% | OC(c1ccccn1)C1(C2CCc3ccccc32)CCC1 (stereo not drawn) [Example 55, [1-(2,3-dihydro-1H-inden-1-yl)cyclobutyl](pyridin-2-yl)methanol] |  |
| 4.66 |  | 0.21% | CC(c1cccc(C(F)(F)F)c1)C1(C(O)c2ccccn2)CCC1 (stereo not drawn) [Example 54, pyridin-2-yl(1-{1-[3-(trifluoromethyl)phenyl]ethyl}cyclobutyl)methanol] |  |
|  | 57% | 0.072% | OC(c1ccccn1)C1(C2CCOCC2)CCC1 (stereo not drawn) [Example 239, pyridin-2-yl[1-(tetrahydro-2H-pyran-4-yl)cyclobutyl]methanol] |  |
| 5.69 |  | 36% | NC1CCCC1C(O)C1(c2cccc(OC(F)(F)F)c2)CCC1 (stereo not drawn) [Example 208, (2-aminocyclopentyl) {1-[3-(trifluoromethoxy)phenyl]cyclobutyl}methanol] |  |
| 5.55 |  | >85% | CC1(O)CC(c2cccc(OC(F)(F)F)c2)(C(O)c2ccccn2)C1 [Example 263, trans-3-[(S)-hydroxy(pyridin-2-yl)methyl]-1-methyl-3-[3-(trifluoromethoxy)phenyl]cyclobutanol] |  |
| 5.43 |  |  | OC(CC1(c2ccccc2)CCC1)c1ccccn1 (stereo not drawn) [Example 68, 2-(1-phenylcyclobutyl)-1-(pyridin-2-yl)ethanol] |  |

The next lines start with the compound.

| SMILES | pIC50 (human TRPV3; [3]) | HUMAN MICROSOMAL STABILITY (% REMAINING AFTER 30 MINUTES) [1] | RAT MICROSOMAL STABILITY (% REMAINING AFTER 30 MINUTES) [2] | also measured |
| --- | --- | --- | --- | --- |
| OC(C1CCCc2cccnc21)C1(c2ccc(OC(F)(F)F)cc2)CCC1 (single isomer, unassigned) [Example 177, (anti)-5,6,7,8-tetrahydroquinolin-8-yl{1-[4-(trifluoromethoxy)phenyl]-cyclobutyl}methanol] | 5.47 | 0.12% | <0.01% |  |
| OC(C1CCCc2cccnc21)C1(c2ccc(Cl)c(Cl)c2)CCC1 (single isomer, unassigned) [Example 182, (syn)-[1-(3,4-dichlorophenyl)cyclobutyl][5,6,7,8-tetrahydroquinolin-8-yl]-methanol] | < 4.70 | <0.01% | <0.01% | pIC50 (human TRPV3; [4]): < 4.70 |
| OC(c1ccccn1)C1(C2=COCCC2)CCC1 (single isomer, unassigned) [Example 270, [1-(3,4-dihydro-2H-pyran-5-yl)cyclobutyl](pyridine-2-yl)methanol] |  | 17% | 0.48% |  |
| OC(c1ncccn1)C1(c2cccc(OC(F)(F)F)c2)CCC1 (stereo not drawn) [Example 37, pyrimidin-2-yl{1-[3-(trifluoromethoxy)phenyl]cyclobutyl}methanol] | 6.08 |  | 7.7% |  |
| OC(c1ccccn1)C1(C2=CCCOC2)CCC1 (single isomer, unassigned) [Example 269, [1-(5,6-dihydro-2H-pyran-3-yl)cyclobutyl](pyridin-2-yl)methanol] |  | 40% | 12% |  |
| OC(C1CCc2cccnc21)C1(c2ccccc2OC(F)(F)F)CCC1 (stereo not drawn) [Example 193, (anti)-6,7-dihydro-5H-cyclopenta[b]pyridin-7-yl{1-[2-(trifluoromethoxy)-phenyl]cyclobutyl}methanol] |  |  |  | HUMAN […] (% REMAINING AFTER 30 MINUTES) ([1]; human liver microsomes, 0.5 μM substrate, 0.25 mg/mL microsomal protein, pH 7.4, 37° C., NADPH, 30 minutes): 0.02%; RAT […] (% REMAINING AFTER 30 MINUTES) ([2]; rat liver microsomes (Sprague-Dawley), 0.5 μM substrate, 0.25 mg/mL microsomal protein, pH 7.4, 37° C., NADPH, 30 minutes): <0.01% |
| CCN(CC)c1ccc(C2(C(O)c3ccccn3)CCC2)cc1 (stereo not drawn) [Example 18, {1-[4-(diethylamino)phenyl]cyclobutyl}(pyridin-2-yl)methanol] | 6.13 |  | 0.27% |  |
| COc1ccc(C2(C(O)c3ccccn3)CCOC2)cc1 (stereo not drawn) [Example 83, [3-(4-methoxyphenyl)tetrahydrofuran-3-yl](pyridin-2-yl)methanol] | < 4.70 |  |  | pIC50 (human TRPV3; [4]): < 4.70 |
| CC1(O)CC(c2cncc(C(F)(F)F)c2)(C(O)c2ccccn2)C1 (single isomer, unassigned) [Example 309] | 5.52 | >85% |  |  |
| N[C@H]1CCC[C@H]1[C@@H](O)C1(c2ccc(Cl)c(Cl)c2)CCC1 [Example 218, (R)-[(1R,2S)-2-aminocyclopentyl][1-(3,4-dichlorophenyl)cyclobutyl]-methanol] | 5.76 |  |  |  |
| CC(c1cccc(Cl)c1)C1(C(O)c2ccccn2)CCC1 (stereo not drawn) [Example 44, {1-[1-(3-chlorophenyl)ethyl]cyclobutyl}(pyridin-2-yl)methanol] | 5.10 |  |  |  |
| N[C@H]1CCC[C@@H]1[C@H](O)C1(c2ccc(Cl)c(Cl)c2)CCC1 [Example 219, (S)-[(1S,2S)-2-aminocyclopentyl][1-(3,4-dichlorophenyl)cyclobutyl]-methanol] | 5.51 |  |  |  |
| CC1(O)CC(c2ccc(OC(F)(F)F)cc2)(C(O)c2ncccn2)C1 [Example 311, (trans)-3-((R)-hydroxy(pyrimidin-2-yl)methyl)-1-methyl-3-(4-(trifluoromethoxy)phenyl)cyclobutanol] | < 4.70 |  | >85% | pIC50 (human TRPV3; [4]): < 4.70 |
| O=C1CC(c2ccc(OC(F)(F)F)cc2)([C@H](O)c2ccccn2)C1 (single isomer, unassigned) [Example 251] | 5.71 |  |  |  |
| OC(c1ccccn1)C1(c2cc(F)cc(C(F)(F)F)c2)CCC1 (stereo not drawn) [Example 14, {1-[3-fluoro-5-(trifluoromethyl)phenyl]cyclobutyl}(pyridin-2-yl)methanol] | < 4.70 |  |  | pIC50 (human TRPV3; [4]): < 4.70 |
| OC(c1ncccn1)C1(c2ccc(Cl)c(Cl)c2)CCC1 (stereo not drawn) [Example 38, [1-(3,4-dichlorophenyl)cyclobutyl] (pyrimidin-2-yl)methanol] | 7.22 |  | 9.5% |  |
| OC(CC1(c2ccc(Cl)c(Cl)c2)CCC1)c1ccccn1 (stereo not drawn) [Example 73, 2-[1-(3,4-dichlorophenyl)cyclobutyl]-1-(pyridin-2-yl)ethanol] | 5.71 |  |  |  |
